We go through two molecules from article PMC9998502, “Functional selectivity of EM-2 analogs at the mu-opioid receptor” (Frontiers in Pharmacology, 2023).

One may read the EC50 as the concentration that produces a half-maximal response. A word on the Ki: it is the dissociation constant of the complex between target and ligand, obtained from inhibition or displacement. As a reminder, the logD is the decadic logarithm of the distribution of all forms, ionised or not, between an organic phase and buffer at a given pH. Lower therefore signals lower lipophilicity.

The target in data set [1] is T1, delta-opioid receptor (Homo sapiens, UniProt P41143). Nature of the data set: Calcium mobilization assay, CHO delta cells expressing GαqG66Di5. It counts as cell-based. Further details: expressed in transfected cells; host or cells: CHO cells co-expressing GαqG66Di5. Background: Calcium flux is commonly read through the fluorescence of an indicator in the cells.
Data set [2] deals with T2, mu receptor-β-arrestin 2 interaction (Homo sapiens, UniProt P35372). Nature of the data set: cell-based. Further details: expressed in transfected cells. The settings on record: read-out: pKb (CL95%) (converted). The method, then:
In antagonism experiments, a 10 min preincubation with vehicle or fixed concentrations of ligand preceded the injection of increasing concentrations of EM-2.
Antagonist potencies (pKb) were computed applying the following equation: pKb = (log (CR − 1)) − log [Anta] with CR as the ratio between agonist potency (molar) in the presence and absence of antagonist and [Anta] is the molar concentration of antagonist. pKb represents the concentration of antagonist that occupies half of the receptor population at equilibrium, expressed in molar units.

For data set [3], the target named is T3, human recombinant mu opioid receptor (Homo sapiens, UniProt P35372).
T3 construct: purchased; host or cells: CHO cells (membranes)
As to the kind of experiment: Radioligand binding, [3H]DAMGO displacement, CHO cell membranes.

In data set [4] the target is T4, human recombinant kappa opioid receptor (Homo sapiens, UniProt P41145).
T4 construct: purchased; host or cells: CHO cells (membranes)
As to the kind of experiment: Radioligand binding, [3H]U-69593 displacement, CHO cell membranes.

Data set [5] is described as follows: Enzymatic degradation in rat brain homogenate. Type of data set: in vitro ADME. The settings on record: 37°C. The method, then:
Enzymatic degradation of EM-2 and the analogs was performed measuring their hydrolysis rates in the presence of rat brain homogenate. The homogenate was prepared prior to the experiment. Briefly, rat brains were homogenized in 20 volumes of Tris–HCl (50 mM, pH 7.4) using a Polytron and the obtained aliquots were stored at −80°C. In the experiment, aliquotes of brain homogenate (100 μL, 10 mg protein/mL) were incubated with 100 µL of a peptide (0.5 mM) over 0, 7.5; 15, 22.5; 30, and 60 min at 37°C, in a final volume of 200 µL. After the incubation the degradation reaction was stopped by placing the tube on ice and acidifying the content with 20 µL of HCl (1 M). The aliquots were centrifuged at 20,000 g for 10 min at 4°C. The supernatants were collected and filtered using Millex-GV syringe filters (Millipore). Then the analysis by HPLC on a Vydac C18 column (5 μm, 4.6 × 250 mm), using the solvent system of 0.1% TFA in water (A) and 80% acetonitrile in water containing 0.1% TFA (B) and a linear gradient of 0%–100% B over 25 min, was performed. Three independent experiments for each assay were carried out in duplicate. The rate constants of degradation (k) were obtained by the least square linear regression analysis of logarithmic peak areas [ln (A/AD)], where A—amount of remained peptide, AD—initial amount of peptide versus time. Degradation half-lives (t1/2) were calculated from the rate constants as ln2/k.

Data set [6] has as its target mu receptor-G protein interaction (Homo sapiens, UniProt P35372). Nature of the data set: BRET mu-G protein interaction assay (membranes of SH-SY5Y cells, mu-RLuc/Gβ1-RGFP). (In general: In BRET a luciferase serves as donor, and the signal depends on an acceptor being close.)
Procedure: (§1) SH-SY5Y cells stably co-expressing the fusoproteins mu-RLuc and Gβ1-RGFP or mu-RLuc and β-arrestin 2-RGFP were grown in DMEM/F12 (1:1) medium supplemented with 10% FBS, 2 mM L-Glutamine, 100 μg/mL hygromycin B, 400 μg/mL G418, 100 units/mL penicillin G, 100 μg/mL streptomycin and 1 μg/mL Fungizone at 37°C in a humidified atmosphere with of 5% CO2.
Total protein in membrane preparations was determined by colorimetric method with the Quantum Protein-BCA kit (EuroClone, Pero (MI), IT) and measured using the multiplate reader Victor Nivo (PerkinElmer, Walthman, MA, United States). White opaque 96 wells microplates (PerkinElmer, Walthman, MA, United States) were used to carry out BRET assays. Cell membranes were thawed and resuspended in PBS supplemented with 0.02% BSA before the assay, and an amount of 5 μg of total protein was dispensed in each 96 well. All experiments were carried out at room temperature.
(§2) In agonism experiments, ligands were added and incubated for 5 min before microplate reading. […] BRET ratios were computed as follow: RGFPCPS/RLucCPSligand−RGFPCPS/RLucCPSvehicle
(§3) Concentration-response curves to agonists were fitted to the four-parameter logistic non-linear regression model as follows: Effect=Basal+Emax−Basal/1+10^LogEC50−Logligand×HillSlope
Data set [7] deals with T5, human mu receptor (Homo sapiens, UniProt P35372).
T5 construct: expressed in transfected cells; host or cells: CHO cells stably co-expressing Gαqi5
Nature of the data set: Calcium mobilization assay, CHO mu cells expressing Gαqi5. Type of data set: cell-based.

The target in data set [8] is T1, delta-opioid receptor. Nature of the data set: Radioligand binding, [3H]deltorphin-2 displacement, CHO cell membranes. Further details: purchased; host or cells: CHO cells (membranes).
In data set [9] the target is T6, human kappa receptor (Homo sapiens, UniProt P41145).
T6 construct: expressed in transfected cells; host or cells: CHO cells stably co-expressing Gαqi5
As to the kind of experiment: Calcium mobilization assay, CHO kappa cells expressing Gαqi5. Type of data set: cell-based. As to conditions: inactive = inactive up to 10 µM.

Data set [10] is described as follows: n-Octanol/water partition coefficient (log P). Type of data set: physicochemical. The settings on record: n-octanol / 0.05 M HEPES buffer in 0.1 M NaCl, pH 7.4. How it is done:
Determination of log P was performed according to the method described by ([Liu et al., 2006]). Peptides were dissolved in 0.05 M HEPES buffer in 0.1 M NaCl, pH 7.4, then an equal volume of n-octanol was added and mixtures were vortexed for 2 min. Samples were centrifuged at 4,000 rpm for 1 min. After separation, aqueous and octanol phases were used to quantify peptide content by RP-HPLC.
Octanol phase was lyophilized and reconstituted in 80% acetonitrile in water containing 0.1% TFA before RP-HPLC. All n-octanol/buffer distribution studies were performed in triplicate.

Data set [11] concerns the target T2, mu receptor-β-arrestin 2 interaction. Nature of the data set: BRET mu-β-arrestin 2 interaction assay (living SH-SY5Y cells, mu-RLuc/β-arrestin 2-RGFP), agonism. As to conditions: BRET mu-β-arrestin 2; Inactive: Emax < 0.10; analog 6 obtained by forcing the Emax to 1.
Procedure: as §1
Mu- β-arrestin 2 interaction—Living SH-SY5Y cells expressing mu-RLuc and β-arrestin 2-RGFP were seeded at a cell density of 100,000 cells/well 24 h prior to the test. On the day of the experiment, medium was discarded, and cells were washed with PBS supplemented with 0.5 mM MgCl2, 0.9 mM CaCl2. Cells were subsequently incubated with 2 μM Prolume Purple Coelenterazine (NanoLight Technology, White Mountain, AZ; United States) for 10 min before bioluminescence reading.
as §2, §3
The conditions of data set [12]: ref Bergese et al., 2019, cited from earlier work.

SMILES strings stand for the structures.

T1 sequence (P41143 whole entry): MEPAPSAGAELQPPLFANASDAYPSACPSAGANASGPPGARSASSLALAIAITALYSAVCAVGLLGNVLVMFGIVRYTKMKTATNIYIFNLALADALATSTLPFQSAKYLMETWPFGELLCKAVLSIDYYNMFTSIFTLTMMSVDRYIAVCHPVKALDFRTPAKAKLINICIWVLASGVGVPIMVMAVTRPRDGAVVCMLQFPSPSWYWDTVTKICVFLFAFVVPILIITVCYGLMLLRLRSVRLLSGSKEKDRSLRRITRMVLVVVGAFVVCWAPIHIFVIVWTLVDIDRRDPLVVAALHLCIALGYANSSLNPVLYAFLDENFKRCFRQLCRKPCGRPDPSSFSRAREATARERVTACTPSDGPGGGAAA
T2 sequence (P35372 whole entry): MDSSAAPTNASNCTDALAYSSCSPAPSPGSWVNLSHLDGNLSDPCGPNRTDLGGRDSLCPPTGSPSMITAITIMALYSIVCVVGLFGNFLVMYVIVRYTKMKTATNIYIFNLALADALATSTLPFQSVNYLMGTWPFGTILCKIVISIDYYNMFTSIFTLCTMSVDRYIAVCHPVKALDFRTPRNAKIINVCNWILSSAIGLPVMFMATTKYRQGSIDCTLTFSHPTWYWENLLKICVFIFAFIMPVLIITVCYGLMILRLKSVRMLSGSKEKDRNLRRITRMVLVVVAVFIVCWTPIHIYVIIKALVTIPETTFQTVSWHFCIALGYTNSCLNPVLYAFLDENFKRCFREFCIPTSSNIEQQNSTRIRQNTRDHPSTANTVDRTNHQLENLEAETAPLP
T5 sequence (P35372 whole entry): as above
T6 sequence (P41145 whole entry): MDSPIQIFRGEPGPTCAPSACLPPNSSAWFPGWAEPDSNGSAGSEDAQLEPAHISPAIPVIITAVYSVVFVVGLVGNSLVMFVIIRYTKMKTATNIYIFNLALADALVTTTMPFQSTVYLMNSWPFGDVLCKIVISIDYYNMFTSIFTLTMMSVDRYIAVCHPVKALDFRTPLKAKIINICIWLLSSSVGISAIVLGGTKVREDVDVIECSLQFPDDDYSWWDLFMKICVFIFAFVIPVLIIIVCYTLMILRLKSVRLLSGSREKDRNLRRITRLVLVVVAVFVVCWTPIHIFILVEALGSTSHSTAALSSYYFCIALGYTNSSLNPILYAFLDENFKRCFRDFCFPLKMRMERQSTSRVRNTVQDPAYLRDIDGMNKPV
Chain of mu receptor-G protein interaction (P62871 whole entry): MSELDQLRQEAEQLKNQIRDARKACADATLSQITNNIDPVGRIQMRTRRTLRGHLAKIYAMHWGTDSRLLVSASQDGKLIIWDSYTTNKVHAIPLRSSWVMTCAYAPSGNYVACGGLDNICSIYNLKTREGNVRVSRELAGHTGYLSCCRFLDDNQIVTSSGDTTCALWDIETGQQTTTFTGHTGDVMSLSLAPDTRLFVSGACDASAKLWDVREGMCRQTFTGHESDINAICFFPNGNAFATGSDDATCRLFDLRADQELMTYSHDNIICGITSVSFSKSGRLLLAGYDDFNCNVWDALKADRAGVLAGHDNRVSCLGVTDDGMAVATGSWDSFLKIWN
Chain of mu receptor-G protein interaction (P35372 whole entry): as the sequence (P35372 whole entry) above
T3 sequence (P35372 whole entry): as above
T4 sequence (P41145 whole entry): as the sequence (P41145 whole entry) above

`Cc1cc(O)cc(C)c1C[C@H](N)C(=O)N1CCCC[C@@H]1C(=O)N[C@@H](Cc1ccccc1)C(=O)N[C@@H](Cc1ccccc1)C(N)=O` [analog 3, Dmt-(R)-Pip-Phe-Phe-NH2]: the EC50 in data set [1] was 148 nM; in data set [6], 1.91 nM; in data set [7], 1.51 nM. Also, in data set [1] (intrinsic activity, Emax ratio to standard agonist DPDPE, inactive = inactive up to 10 µM), the “Delta α± SEM” value is listed as 0.56 ± 0.05. Further, in data set [2], the Kb was 0.0794 nM. The Ki in [3] turned out to be 3.92 ± 0.5 nM; in data set [4], 72 ± 6 nM; in data set [8], 37 ± 5 nM. For the same molecule, the “100 x k, rate constant of degradation” value in data set [5] (up to 60 min) came out at 0.73 ± 0.07 per min. Further, the half-life at 0.25 mM in data set [5] (rat, pH 7.4, rat brain homogenate, ln2/k, read-out: t1/2, degradation half-life) is 1.57 ± 0.0467 h. In addition, the “mu α±SEM” value in data set [7] (intrinsic activity, Emax ratio to standard agonist EM-2, inactive = inactive up to 10 µM) was 0.70 ± 0.03. Besides, in data set [9] (calcium mobilization), the “Kappa pEC50 (CL95%)” value was “inactive”. In addition, the “Kappa α± SEM” value in [9] (intrinsic activity, Emax ratio to standard agonist dynorphin A) was “inactive”. Also, the log distribution coefficient (logD) in data set [10] came out at 2.49. Moreover, the “β-Arrestin 2 pEC50 (CL95%)” value in data set [11] is reported as “Inactive”.
Turning to `COc1ccsc1CNCC[C@@]1(c2ccccn2)CCOC2(CCCC2)C1` [oliceridine, [(3-methoxythiophen-2-yl)methyl]({2-[(9R)-9-(pyridin-2-yl)-6-oxaspiro-[4.5]decan-9-yl]ethyl})amine], the “patients with lack of efficacy” value in [12] (moderate to severe acute pain in adults) is “less than 5%”. Besides, the “patients who experienced some adverse effects (vomiting, nausea, headache, or constipation)” value in data set [12] was 64%.
